Data: US20080227855A1, “Solid Dispersion of Hydrophobic Bioactive” (priority 2005, published 2008)

Key:
[1] = indomethacin with PVP, hydrogen bonding; cited from earlier work
[2] = Dissolution, USP paddle method; type: physicochemical; conditions: pH6.8 buffer at 37 C, 100 rpm (FIG. 11)
Method: Dispersions were prepared as described above containing Gris:PVP 1:1; Gris:PHPMA:PVP 2.5:1.25:1.25, and compared to Gris spray dried without polymer and crystalline Gris. Dissolution data were prepared by placing a small amount of sample in a hard gelatine capsule and following dissolution in pH6.8 buffer at 37 C (with added surfactant if dispersion was required), using a USP paddle method.

[3] = griseofulvin dispersed in PVP (high Tg polymer); cited from earlier work
[4] = XRPD analysis of crystallinity (amorphous stability) of spray dried dispersions on storage; type: physicochemical; conditions: stored at room temperature under vacuum (FIG. 8)
Method: All dispersions were spray dried using a Niro SD spray dryer connected to a nitrogen generator.
Solutions for dispersions were prepared by dissolving griseofulvin, a major excipient (PVP) and a minor excipient in an acetone water co-solvent system. To ensure homogeneity, the dispersions were allowed to mix for eight hours before the dispersion was spray dried using a Niro SD system under nitrogen conditions with an inlet temperature of 65° C. and an outlet temperature of 45° C. The feed rate was around 15% of maximum and the nitrogen flow rates were 20 kg/hr and 2 kg/hr for the drying and atomization rates respectively.
The samples were then stored under constant vacuum for 24 hours to allow for the removal of solvent before being transferred to the required conditions.
A Philips PW37010 X-ray Powder Diffractometer (Philips, Cambridge, UK) was used to analyse the samples for crystallization, with a sample XRPD scans shown in FIGS. 1a and 1b.
This was compressed to produce a flat surface before being loaded into the XRPD. […]
Pure crystalline griseofulvin or flavanone was subjected to the same methodology to produce a standard XRPD scan. A number of peaks were selected from each of these standards to produce a 100% crystalline value expressed as X-ray count/°2Θ these were then compared with the area under the peaks of the dispersions to produce percentage crystallinity values.

COc1ccc2c(c1)c(CC(=O)O)c(C)n2C(=O)c1ccc(Cl)cc1 [Indomethacin]
amorphous stability [1]: above that expected on the basis of glass transition temperature alone

COC1=CC(=O)C[C@@H](C)[C@]12Oc1c(Cl)c(OC)cc(OC)c1C2=O [griseofulvin, Griseofulvin]
dissolution [2]: slow dissolution | crystallisation of drug dispersed in polymer [3]: relatively rapid crystallisation

O=C1CC(c2ccccc2)Oc2ccccc21 (centres unmarked) [Flavanone]
crystallinity by XRPD ([4]; Flavanone dispersed with PVP): near completely crystalline | crystallinity by XRPD ([4]; Flavanone dispersed with a combination of PHPMA and PVP): only partial crystallinity
